The target in one test is T1, KIT (Homo sapiens, UniProt P10721).
T1 construct: made in house
In words: Competition binding assay, KIT Kd. To be noted: competition binding. In short, it runs like this:
(§1)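 Compound displacement of kinase from bead-immobilized ligand is measured by qPCR after 1 h equilibration at room temperature. Kinases are T7 phage fusions or DNA-tagged HEK-293 products.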

In a further test the test system is M-NFS-60 cells. Briefly: M-NFS-60 cell proliferation assay (Alamar Blue). To be noted: Mus musculus; M-NFS-60 cell proliferation; read-out: CSF1R M-NFS-60 CTB:IC50. Type of test: cell-based, mouse. In short, it runs like this: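 Alamar Blue reduction (3 h; 560/590 nm) measured viability after 72 h, 37 °C treatment with nine half-log compound concentrations at 0.5% DMSO. Cells: M-CSF-dependent (20 ng/mL) murine M-NFS-60 in RPMI plus 10% FBS. IC50s, averaged from duplicates, reflect half-maximal inhibition of proliferation relative to control.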

Test [1] addresses T2, CSF1R (Homo sapiens, UniProt P07333). In words: Competition binding assay, CSF1R Kd. On the set-up: made in house. To be noted: competition binding. In short, it runs like this: as §1
The target in test [2] is T2, CSF1R. In words: HEK293 CSF1R phosphorylation MSD assay. The class given is cell-based. Set-up: expressed in transfected cells; host or cells: HEK293. To be noted: HEK293 cells, M-CSF stimulated CSF1R phosphorylation, MSD; read-out: HEK293 pCSF1R M-CSF MSD:IC50. In short, it runs like this:
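Ligand-induced CSF1R autophosphorylation was measured by MSD sandwich assay: CSF1R-FKBP from lysates captured via FK506, anti-phosphotyrosine readout. Cells were exposed to compound for 2 h (9-point, half-log, 0.5% DMSO) before 5 min 50 ng/mL M-CSF. Reported IC50 is the mean of duplicate-plate IC50s relative to DMSO control.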

Some results are limits rather than exact numbers.

T1 sequence (P10721 26-976): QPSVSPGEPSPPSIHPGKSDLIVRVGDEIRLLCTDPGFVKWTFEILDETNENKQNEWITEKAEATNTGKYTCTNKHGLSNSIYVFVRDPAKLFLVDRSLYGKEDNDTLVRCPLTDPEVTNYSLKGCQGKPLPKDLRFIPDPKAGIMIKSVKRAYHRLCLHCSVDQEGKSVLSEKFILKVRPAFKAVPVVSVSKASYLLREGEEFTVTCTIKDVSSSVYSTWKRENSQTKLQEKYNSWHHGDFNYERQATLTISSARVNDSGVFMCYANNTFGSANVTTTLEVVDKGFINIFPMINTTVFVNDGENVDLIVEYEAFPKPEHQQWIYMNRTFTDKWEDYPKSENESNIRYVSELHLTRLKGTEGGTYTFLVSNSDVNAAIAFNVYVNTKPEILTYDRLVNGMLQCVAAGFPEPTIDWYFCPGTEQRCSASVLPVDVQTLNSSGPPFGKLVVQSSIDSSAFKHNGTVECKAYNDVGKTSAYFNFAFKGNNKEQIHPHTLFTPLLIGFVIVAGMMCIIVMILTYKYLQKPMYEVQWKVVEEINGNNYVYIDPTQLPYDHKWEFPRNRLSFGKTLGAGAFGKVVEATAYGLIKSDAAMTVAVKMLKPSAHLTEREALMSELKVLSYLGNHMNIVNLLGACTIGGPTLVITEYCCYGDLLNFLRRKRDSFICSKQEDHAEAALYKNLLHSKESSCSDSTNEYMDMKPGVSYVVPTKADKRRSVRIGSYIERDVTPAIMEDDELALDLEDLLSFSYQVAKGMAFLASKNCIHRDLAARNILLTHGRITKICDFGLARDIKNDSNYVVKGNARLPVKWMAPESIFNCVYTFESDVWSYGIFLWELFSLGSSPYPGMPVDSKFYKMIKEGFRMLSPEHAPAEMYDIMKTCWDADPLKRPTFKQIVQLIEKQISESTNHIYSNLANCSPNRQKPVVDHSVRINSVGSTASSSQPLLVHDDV
T2 sequence (P07333 20-972): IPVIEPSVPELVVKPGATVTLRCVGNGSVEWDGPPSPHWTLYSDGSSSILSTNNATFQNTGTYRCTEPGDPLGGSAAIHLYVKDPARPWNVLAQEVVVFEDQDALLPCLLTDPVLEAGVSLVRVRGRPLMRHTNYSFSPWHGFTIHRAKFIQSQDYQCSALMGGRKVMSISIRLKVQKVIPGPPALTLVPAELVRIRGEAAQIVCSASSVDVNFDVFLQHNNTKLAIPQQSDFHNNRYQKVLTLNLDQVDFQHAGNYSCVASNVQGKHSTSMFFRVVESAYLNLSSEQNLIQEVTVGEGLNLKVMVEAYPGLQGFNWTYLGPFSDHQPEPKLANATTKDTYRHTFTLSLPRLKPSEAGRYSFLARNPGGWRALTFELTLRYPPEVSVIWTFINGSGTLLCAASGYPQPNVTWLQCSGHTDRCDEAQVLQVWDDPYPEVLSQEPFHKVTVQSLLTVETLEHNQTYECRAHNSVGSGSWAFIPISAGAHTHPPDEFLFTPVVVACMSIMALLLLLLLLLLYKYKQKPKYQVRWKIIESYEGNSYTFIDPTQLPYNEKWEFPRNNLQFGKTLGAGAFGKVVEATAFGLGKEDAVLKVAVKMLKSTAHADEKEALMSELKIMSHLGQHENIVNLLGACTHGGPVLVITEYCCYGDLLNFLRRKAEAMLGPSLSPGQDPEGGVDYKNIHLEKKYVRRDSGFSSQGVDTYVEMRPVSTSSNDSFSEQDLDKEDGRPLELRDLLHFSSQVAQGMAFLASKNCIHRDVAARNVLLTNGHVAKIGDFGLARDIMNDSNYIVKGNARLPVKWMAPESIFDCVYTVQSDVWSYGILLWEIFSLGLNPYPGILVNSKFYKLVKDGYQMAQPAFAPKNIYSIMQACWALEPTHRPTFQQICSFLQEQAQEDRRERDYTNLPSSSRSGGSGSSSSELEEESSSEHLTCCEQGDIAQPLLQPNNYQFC

A word on the Kd: it is a measure of binding affinity in units of concentration. Low values mean higher affinity, high ones lower affinity. For orientation: IC50 means the point on the concentration scale where inhibition reaches its midpoint. In the case of `O[C@@H]1CCCC[C@H]1Nc1nc2cc(F)c(Cn3cnc4cccnc43)cc2s1` [Example 154, (1R,2R)-2-((6-((3H-imidazo[4,5-b]pyridin-3-yl)methyl)-5-fluorobenzo[d]thiazol-2-yl)amino)cyclohexanol], the Kd fell in the range of 500 to 2000 nM on KIT and 5 to 20 nM at CSF1R [1]. The figures for the IC50 in the test with M-NFS-60 cells and at CSF1R [2] were 50 to 400 nM and 50 to 200 nM, respectively.

Regarding `O[C@@H]1CCCC[C@H]1Nc1nc2ccc(Cn3cnc4cc(OCCN5CCOCC5)ccc43)cc2s1` [Example 171, (1R,2R)-2-((6-((5-(2-morpholinoethoxy)-1H-benzo[d]imidazol-1-yl)methyl)benzo[d]thiazol-2-yl)amino)cyclohexanol], the Kd at KIT is at most 100 nM; at CSF1R [1], 5 to 20 nM. Besides, the IC50 in the test with M-NFS-60 cells is 50 to 400 nM; at CSF1R [2], at most 50 nM.

Consider `CC(C)(O)c1cnc2c(c1)ncn2Cc1ccc2nc(N[C@@H]3CCCC[C@H]3O)sc2c1` [Example 109, (1R,2R)-2-((6-((6-(2-hydroxypropan-2-yl)-3H-imidazo[4,5-b]pyridin-3-yl)methyl)benzo[d]thiazol-2-yl)amino)cyclohexanol], for which the Kd at KIT was in the range of 100 to 500 nM; on CSF1R [1] it was 20 to 50 nM. For the same compound, the IC50 with M-NFS-60 cells was 50 to 400 nM; on CSF1R [2] it was 50 to 200 nM.

As to `N#Cc1cc2ncn(Cc3ccc4nc(N[C@@H]5CCCC[C@H]5O)sc4c3)c2nc1C#N` [Example 139, 3-((2-(((1R,2R)-2-hydroxycyclohexyl)amino)benzo[d]thiazol-6-yl)methyl)-3H-imidazo[4,5-b]pyridine-5,6-dicarbonitrile], the Kd fell in the range of 100 to 500 nM on KIT and 20 to 50 nM on CSF1R [1]. Moreover, the values for the IC50 with M-NFS-60 cells and at CSF1R [2] were 400 to 1500 nM and 200 to 500 nM, respectively.

With `N#Cc1cnc2c(c1)ncn2Cc1ccc2nc(N[C@@H]3CCCC[C@H]3O)oc2c1` [Example 124, 3-((2-(((1R,2R)-2-hydroxycyclohexyl)amino)benzo[d]oxazol-6-yl)methyl)-3H-imidazo[4,5-b]pyridine-6-carbonitrile], the figures for the Kd on KIT and on CSF1R [1] were at most 100 nM and 5 to 20 nM, respectively. Also, the IC50 was 50 to 400 nM with M-NFS-60 cells and 50 to 200 nM at CSF1R [2].

In the case of `C#Cc1ccc2ncn(Cc3ccc4nc(N[C@@H]5CCCC[C@H]5O)sc4c3)c2c1` [Example 122, (1R,2R)-2-((6-((6-ethynyl-1H-benzo[d]imidazol-1-yl)methyl)benzo[d]thiazol-2-yl)amino)cyclohexanol], the results for the Kd on KIT and on CSF1R [1] were 100 to 500 nM and 5 to 20 nM, respectively. Further, the IC50 in the test on M-NFS-60 cells fell in the range of 50 to 400 nM; on CSF1R [2] it was 50 to 200 nM.

In the case of `O[C@@H]1CCCC[C@H]1Nc1nc2ccc(Cc3cnc4cnccn34)cc2s1` [Example 125, (1R,2R)-2-((6-(imidazo[1,2-a]pyrazin-3-ylmethyl)benzo[d]thiazol-2-yl)amino)cyclohexanol], the Kd on KIT lay within 500 to 2000 nM; at CSF1R [1], 5 to 20 nM. For the same compound, the IC50 lay in the range of 400 to 1500 nM in the test on M-NFS-60 cells and 50 to 200 nM on CSF1R [2].

Turning to `Cc1cc2ncn(Cc3ccc4nc(N[C@@H]5CCCC[C@H]5O)sc4c3)c2cc1C` [Example 119, (1R,2R)-2-((6-((5,6-dimethyl-1H-benzo[d]imidazol-1-yl)methyl)benzo[d]thiazol-2-yl)amino)cyclohexanol], the values for the Kd on KIT and on CSF1R [1] were at most 100 nM and 5 to 20 nM, respectively. For the same compound, the IC50 in the test on M-NFS-60 cells was 50 to 400 nM; on CSF1R [2], 50 to 200 nM.

For `O[C@@H]1CCCC[C@H]1Nc1nc2ccc(Cn3cnc4cc(F)cc(F)c43)cc2s1` [Example 148, (1R,2R)-2-((6-((5,7-difluoro-1H-benzo[d]imidazol-1-yl)methyl)benzo[d]thiazol-2-yl)amino)cyclohexanol], the results for the Kd on KIT and at CSF1R [1] were at most 100 nM and at most 5 nM, respectively. In addition, the results for the IC50 with M-NFS-60 cells and on CSF1R [2] were 50 to 400 nM and 50 to 200 nM, respectively.

Turning to `CC(=O)c1ccc2c(c1)ncn2Cc1ccc2nc(N[C@@H]3CCCC[C@H]3O)sc2c1` [Example 110, 1-(1-((2-(((1R,2R)-2-hydroxycyclohexyl)amino)benzo[d]thiazol-6-yl)methyl)-1H-benzo[d]imidazol-5-yl)ethanone], the Kd at KIT is 100 to 500 nM; on CSF1R [1], at most 5 nM. The IC50 is 50 to 400 nM in the test with M-NFS-60 cells and at most 50 nM at CSF1R [2].

In the case of `O[C@@H]1CCCC[C@H]1Nc1nc2ccc(Cn3cnc4cc(F)ccc43)cc2s1` [Example 129, (1R,2R)-2-((6-((5-fluoro-1H-benzo[d]imidazol-1-yl)methyl)benzo[d]thiazol-2-yl)amino)cyclohexanol], the Kd at KIT was at most 100 nM; at CSF1R [1], at most 5 nM. For the same compound, the IC50 in the test with M-NFS-60 cells was 50 to 400 nM; on CSF1R [2] it was at most 50 nM.

As for `O[C@@H]1CCCC[C@H]1Nc1nc2ccc(Cc3cnc4sccn34)cc2s1` [Example 157, (1R,2R)-2-((6-(imidazo[2,1-b]thiazol-5-ylmethyl)benzo[d]thiazol-2-yl)amino)cyclohexanol], the results for the Kd on KIT and at CSF1R [1] were above 2000 nM and 20 to 50 nM, respectively. Besides, the IC50 is 400 to 1500 nM in the test on M-NFS-60 cells and above 500 nM on CSF1R [2].

Regarding `O[C@@H]1CCCC[C@H]1Nc1nc2ccc(Cn3cnc4cc(OC(F)(F)F)ccc43)cc2s1` [Example 149, (1R,2R)-2-((6-((5-(trifluoromethoxy)-1H-benzo[d]imidazol-1-yl)methyl)benzo[d]thiazol-2-yl)amino)cyclohexanol], the results for the Kd on KIT and on CSF1R [1] were 100 to 500 nM and 5 to 20 nM, respectively. Further, the IC50 in the test on M-NFS-60 cells was 50 to 400 nM; on CSF1R [2], 200 to 500 nM.

Consider `Cn1nnc(-c2ccc3c(c2)ncn3Cc2ccc3nc(N[C@@H]4CCCC[C@H]4O)sc3c2)n1` [Example 227, (1R,2R)-2-((6-((5-(2-methyl-2H-tetrazol-5-yl)-1H-benzo[d]imidazol-1-yl)methyl)benzo[d]thiazol-2-yl)amino)cyclohexanol], for which the equilibrium dissociation constant (Kd) at KIT lay in the range of 100 to 500 nM; on CSF1R [1], 5 to 20 nM. Besides, the IC50 in the test with M-NFS-60 cells and on CSF1R [2] was at most 50 nM in each case.

`O[C@@H]1[C@H](O)CCC[C@H]1Nc1nc2ccc(Cn3cnc4cc(-n5cncn5)cnc43)cc2s1` [Example 234, (1R,2S,3R)-3-((6-((6-(1H-1,2,4-Triazol-1-yl)-3H-imidazo[4,5-b]pyridin-3-yl)methyl)benzo[d]thiazol-2-yl)amino)cyclohexane-1,2-diol]: the results for the Kd on KIT and on CSF1R [1] were at most 100 nM and 5 to 20 nM, respectively. Besides, the values for the IC50 with M-NFS-60 cells and at CSF1R [2] were 50 to 400 nM and 50 to 200 nM, respectively.

In the case of `O=C(c1ccn2c(Cc3ccc4nc(N[C@@H]5CCCC[C@H]5O)sc4c3)cnc2c1)N1CCCC1` [Example 223, (3-((2-(((1R,2R)-2-hydroxycyclohexyl)amino)benzo[d]thiazol-6-yl)methyl)imidazo[1,2-a]pyridin-7-yl)(pyrrolidin-1-yl)methanone], the Kd at KIT is 100 to 500 nM; at CSF1R [1], 5 to 20 nM. In addition, the IC50 was 50 to 400 nM in the test on M-NFS-60 cells and 50 to 200 nM on CSF1R [2].

Turning to `COc1nc2c(cc1C#N)ncn2Cc1ccc2nc(N[C@@H]3CCCC[C@H]3O)sc2c1` [Example 126, 3-((2-(((1R,2R)-2-hydroxycyclohexyl)amino)benzo[d]thiazol-6-yl)methyl)-5-methoxy-3H-imidazo[4,5-b]pyridine-6-carbonitrile], the Kd was in the range of 100 to 500 nM at KIT and 5 to 20 nM at CSF1R [1]. The IC50 with M-NFS-60 cells was 50 to 400 nM; at CSF1R [2] it was at most 50 nM.

(Values after US9938261B2, “Heterocyclic compounds and methods of use thereof” (AMBIT BIOSCIENCES CORPORATION, priority 2011, dated 2018).)
